This note sets out measurements from US20090143421A1, “USE OF 2-BENZOYL-IMIDAZOPYRIDINES IN THERAPEUTICS” (SANOFI-AVENTIS, priority 2006, published 2009).

Counter-ions that a name gives are not always drawn.

One experiment addresses T1, mouse Nurrl receptor (Mus musculus, UniProt Q06219).
T1 construct: a cell line (N2A) endogenously expressing the mouse Nurrl receptor; host or cells: Neuro-2A (N2A) mouse neuroblastoma cells stably transfected with 8NBRE-luciferase
The experiment is described as follows: in vitro activity on N2A cells (NBRE-luciferase reporter). Particulars: N2A-8NBRE-luciferase cells, 24 hours incubation with the products. It is filed as cell-based. As for the experimental part: Evaluation of the in vitro Activity on N2A Cells
Assays consisted in measuring the in vitro activity of the compounds of the invention on a cell line (N2A) endogenously expressing the mouse Nurrl receptor and stably transfected with the NOT binding response element (NBRE) coupled to the luciferase reporter gene. The EC50 values are between 0.01 and 1000 nM. The assays were carried out according to the procedure described below.
The Neuro-2A cell line comes from a standard commercial source (ATCC) . The Neuro-2A clone was obtained from a spontaneous tumor originating from an A albino mouse strain, by R. J Klebe et al. This Neuro-2A line is subsequently stably transfected with 8NBRE-luciferase. The N2A-8NBRE cells are cultured until confluence in 75 cm^2 culture flasks containing DMEM supplemented with 10% of fetal calf serum, 4.5 g/l of glucose and 0.4 mg/ml of geneticin. After a week of culture, the cells are recovered with 0.25% trypsin for 30 seconds and then resuspended in DMEM without phenol red, containing 4.5 g/l of glucose and 10% of Hyclone delipidized serum, and deposited into transparent-bottom 96-well white plates. The cells are deposited at a rate of 60 000 per well in 75 μl for 24 hours before the addition of the products. […] The plates are subsequently measured in a luminescence counter for microplates after having been sealed with an adhesive film. […]
(In general: In a reporter assay the amount or activity of a reporter protein is the signal.)

A further experiment deals with human NOT receptor. The experiment is described as follows: binding to the human NOT receptor by SPR (BIACORE S51). Particulars: immobilized GST-NOT whole protein and NOT ligand-binding domain, 3.75 to 0.1 μM, 4° C. As to the method: Evaluation of the Binding to the Human NOT Receptor
The direct binding between compounds of the invention and the human NOT receptor was evaluated using SPR (surface plasmon resonance) technology. In this assay, the protein is immobilized covalently to the matrix and the molecule to be studied is injected into the chamber containing the sensor chip. The signal is directly proportional to the amount of product bound to the protein. The binding assays were carried out in a BIACORE S51 instrument (Biacore Inc., Piscataway N.J.). The GST-NOT (NOT-FL) whole protein was provided by Invitrogen (PV3265). The NOT ligand-binding domain (His-Thr-NOT 329-598) was expressed and purified as described in Nature 423, 555-560. The two proteins, diluted to a concentration of 20 μg/ml in an acetate buffer, pH 5.0, containing 5 mM of DTT, were immobilized on a carboxymethyl 5′ dextran surface (CM5 sensor chip, Biacore Inc.) by amine coupling according to the protocol recommended by Biacore, elution being carried with an HBS-N buffer (10 mM HEPES, 0.15 M NaCl, 3 mM EDTA, pH 7.4). Approximately 10000-15000 resonance units (RU) of the proteins are captured on the surface of the CM5 sensor chip. […] The dissociation was recorded for 5 minutes without any other procedure for regenerating the surface. […]
(In general: SPR reads the build-up and loss of mass on a sensor chip optically.)

T1 sequence (Q06219 whole entry): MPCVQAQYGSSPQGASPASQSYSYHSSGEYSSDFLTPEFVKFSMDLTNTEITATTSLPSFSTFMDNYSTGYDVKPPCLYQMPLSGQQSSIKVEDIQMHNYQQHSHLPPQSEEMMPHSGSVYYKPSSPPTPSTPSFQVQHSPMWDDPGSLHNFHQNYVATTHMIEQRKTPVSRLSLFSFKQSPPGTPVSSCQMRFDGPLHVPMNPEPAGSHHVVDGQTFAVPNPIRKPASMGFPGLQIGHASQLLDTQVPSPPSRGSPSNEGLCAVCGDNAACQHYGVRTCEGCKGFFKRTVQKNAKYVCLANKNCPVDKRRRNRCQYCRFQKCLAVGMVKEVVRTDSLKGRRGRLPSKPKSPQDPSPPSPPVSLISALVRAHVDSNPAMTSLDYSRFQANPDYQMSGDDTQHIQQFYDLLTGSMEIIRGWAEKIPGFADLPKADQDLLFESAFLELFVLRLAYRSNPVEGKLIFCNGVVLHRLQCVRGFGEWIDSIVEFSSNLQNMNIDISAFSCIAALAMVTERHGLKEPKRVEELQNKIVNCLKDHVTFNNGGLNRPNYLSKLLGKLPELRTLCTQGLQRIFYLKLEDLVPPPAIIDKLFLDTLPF

As usually defined, the EC50 is the concentration that produces a half-maximal response. On mouse Nurrl receptor, `Cc1ccn2cc(C(=O)c3ccccc3)nc2c1` [Compound 6, (7-methylimidazo[1,2-a]pyridin-2-yl)(phenyl)methanone] gave an EC50 of 1.2 nM. Further, the “affinity (classified by maximum binding level and kinetic parameters)” value with human NOT receptor is on record as “medium affinity”.

Regarding `O=C(c1ccccc1)c1cn2ccccc2n1` [Compound 7, (imidazo[1,2-a]pyridin-2-yl)(phenyl)methanone], the EC50 on mouse Nurrl receptor was 31 nM.

Turning to `O=C(c1ccccc1)c1cn2cc(Cl)ccc2n1` [Compound 3, (6-Chloroimidazo[1,2-a]Pyridin-2-yl)-(Phenyl)Methanone Hydrobromide (1:1)], in the experiment with human NOT receptor, the “affinity (classified by maximum binding level and kinetic parameters)” value is “high affinity”.
